US12279621B1, “Insect neuropeptides 3” (Solasta Bio Limited, priority 2023, dated 2025)

System: Spodoptera frugiperda
Test: Lepidoptera artificial diet assay
Format: in vivo
Conditions: unformulated peptide, final concentration 1×10^−4 M in diet, one L1 larva per cell, n=10, 168 hrs; compared to negative control vehicle and DDT
Experimental: One larva was assayed per cell. (n=10). Frontier Lepidoptera artificial diet was made up by preparing agar at 1% and then mixing it with artificial diet powder. Peptide solution was aliquoted in 10 cells and diet poured straight onto it. The final concentration of the peptide was 1×10^−4 M, and each peptide was aliquoted in 10 cells. Once the diet solidified and cooled down, one L1 larvae was infested in each cell. The trays were sealed with heat and let larva were allowed to develop for 168 hrs. Finally, pupation and mortality were scored for. Lepidoptera artificial diet assays were performed with SB-P-80, and compared to a negative control vehicle and the insecticide dichlorodiphenyltrichloroethane (DDT).

[Hy]-NADEDQQQSVDFTPRL-[NH2] (H-NADEDQQQSVDFTPRL-NH2) [SB-P-80, pyrokinin peptide according to the invention]
activity (pupation and mortality scored) in lepidoptera artificial diet assay: much higher activity
